The text below walks through data of US8101200B2, “Targeted therapeutic agent release devices and methods of making and using the same” (Angiotech BioCoatings, Inc., priority 2000, dated 2012).

The structures appear in SMILES notation.

The nature of this data set: Elution of paclitaxel from E3 Med Coat coated stents in phosphate buffered saline. In kind it is physicochemical. Particulars: from E3 Med Coat stents (loading 50-60 μg), over a period of 14 days. As to the method:
Solution E3-PC was coated on stainless steel coronary stents, and dried for 60 minutes at 120° C. This layer was applied twice. Solution E3 —Med Coat was coated over the precoat layers, and dried for 60 minutes at 120° C. Drug loading on the stents in the range of 50-60 μg was achieved by applying the Med Coat three times. The stent samples with three layers of E3—Med Coat were subjected to elution in room temperature phosphate buffered saline for times up to 336 hours, and produced the results set forth in TABLE I.

In the case of `CC(=O)O[C@H]1C(=O)[C@@]2(C)[C@H]([C@H](OC(=O)c3ccccc3)[C@]3(O)C[C@H](OC(=O)[C@H](O)[C@@H](NC(=O)c4ccccc4)c4ccccc4)C(C)=C1C3(C)C)[C@]1(OC(C)=O)CO[C@@H]1C[C@@H]2O` [paclitaxel], the paclitaxel eluted out entry is recorded as “approximately 10%”.
